Laboratory results taken from patent US20220146526A1, “METHOD FOR EVALUATING SAMPLE, ANALYSIS METHOD, METHOD FOR DETECTING DEGRADED SAMPLE, MARKER FOR DETECTING DEGRADED BLOOD PLASMA SAMPLE, AND MARKER FOR DETECTING DEGRADED SERUM SAMPLE” (SHIMADZU CORPORATION, priority 2019, published 2022).

Key:
Type in all cases: physicochemical, human
[1] = LC/MS of blood plasma sample: number of times of freezing and thawing (Table F); conditions: for Rate of increase or decrease: detection intensity relative to 1 at 2 times; for Increase or decrease: detection intensity
Protocol: (§1) At room temperature, 5 mL of blood from a healthy subject was taken into a blood-collecting vessel containing EDTA, and the blood-collecting vessel was inverted for mixing, then cooled, and allowed to stand at 4° C. Here, in order to investigate how the detection intensity of molecules contained in the sample was affected in a case where the time to cooling was set to 5 minutes or more as compared to that in a case where the time to cooling was set to 1 minute or less, preparations were performed under both the former condition and the latter condition. After standing, the blood sample was subjected to centrifugation under a condition of 4° C., 3000 rpm, and 15 minutes. […] After centrifugation, the blood-collecting vessel was left to stand at room temperature for 30 minutes, and the blood plasma was isolated during this 30 minutes. The obtained blood plasma sample was frozen and stored. Here, in order to investigate how the detection intensity of molecules contained in the sample was affected in cases where freezing and thawing was performed 4 times, 6 times, and 10 times after freezing as compared to that in a case where freezing and thawing was performed 2 times after freezing, freezing and thawing was performed under the respective conditions of 2, 4, 6, and 10 times.
(§2) Frozen blood plasma samples and serum samples were subjected to GC/MS or LC/MS. In GC/MS, the blood plasma samples and serum samples were subjected to methoxymation and trimethylsilylation and then introduced to GC-MS.
(§3) Analysis column: Discovery HS F5-3 (inner diameter of 2.1 mm, length of 150 mm, film thickness of 3 μm) (Sigma-Aldrich)
(§4) Column temperature: 40° C.
(§5) (A) 0.1% formic acid (dissolved in water)
(§6) (B) 0.1% formic acid (dissolved in acetonitrile)
(§7) Flow velocity: 0.25 mL/min
(§8) Ionization method: electrospray
(§9) Temperature: • Desolvation Line (DL) temperature: 250° C. • Heat block temperature: 400° C. • Interface temperature: 300° C.
(§10) Gas flow rate: • Nebulizer gas flow rate: 3.0 L/min • Drying gas flow rate: 10.0 L/min • Heating gas flow rate: 10.0 L/min
(§11) Mode: multiple reaction monitoring (MRM)
The rate of increase or decrease in Table F is the value of detection intensity relative to 1 that is the detection intensity in a case where the number of times of freezing and thawing is set to 2 times.

[2] = LC/MS of serum sample: time from blood collection to centrifugation (Table J); conditions: for Rate of increase or decrease: detection intensity relative to 1 at 15 minutes; for Increase or decrease / Time when compound is affected: serum sample, LC/MS; for Increase or decrease: detection intensity vs 15 minutes from blood collection to centrifugation; for Time when compound is affected: time from blood collection to centrifugation, detection intensity changed by 30% or more vs 15 minutes
Protocol: After standing, the blood sample was subjected to centrifugation under a condition of room temperature, 3500 rpm, and 5 minutes. […] After centrifugation, the blood-collecting vessel was left to stand at room temperature, and the serum was isolated during this time. Here, in order to investigate how the detection intensity of molecules contained in the sample was affected in cases where the time during which the blood-collecting vessel was left at room temperature was set to 1 hour and 6 hours as compared to that in a case where the time was set to 30 minutes, preparations were performed under the respective conditions of 30 minutes, 1 hour, and 6 hours. The obtained serum sample was frozen and stored. Here, in order to investigate how the detection intensity of molecules contained in the sample was affected in cases where freezing and thawing was performed 4 times, 6 times, and 10 times after freezing as compared to that in a case where freezing and thawing was performed 2 times after freezing, freezing and thawing was performed under the respective conditions of 2, 4, 6, and 10 times.
as §2, §3, §4, §5, §6, §7, §8, §9, §10, §11
The rate of increase or decrease in Table J is the value of detection intensity relative to 1 that is the detection intensity in a case where the time from blood collection to centrifugation is set to 15 minutes.

[3] = LC/MS of serum sample: number of times of freezing and thawing (Table M); set-up: key to Rate of increase or decrease: detection intensity relative to 1 at 2 freeze-thaw cycles; conditions: for Number of times when compound is affected / Increase or decrease: serum sample, LC/MS; for Number of times when compound is affected: detection intensity changed by 30% or more vs 2 times of freezing and thawing; for Increase or decrease: detection intensity vs 2 times of freezing and thawing
In short: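 Values are detection intensities relative to serum thawed twice, versus 4, 6 or 10 freeze-thaw cycles. Serum came from blood spun at room temperature, 3500 rpm for 5 minutes. Analysis: electrospray LC/MS in MRM mode, Discovery HS F5-3 column, 40° C, 0.1% formic acid in water and acetonitrile.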

[4] = LC/MS of blood plasma sample: time from blood collection to centrifugation (Table D); conditions: for Increase or decrease: detection intensity; for Increase or decrease / Rate of increase or decrease: blood collection to centrifugation; for Rate of increase or decrease: detection intensity relative to 1 at 15 minutes
Protocol: as §1, §2, §3, §4, §5, §6, §7, §8, §9, §10, §11
The rate of increase or decrease in Table D is the value of detection intensity relative to 1 that is the detection intensity in a case where the time from blood collection to centrifugation is set to 15 minutes.

[5] = freezing and thawing 10 times vs 2 times
[6] = after 12 hours from blood collection to centrifugation
[7] = 6 times of freezing and thawing, detection intensity relative to 1 at 2 times

Row | Compound | Rate of increase or decrease ([1]; freezing and thawing 10 times) | Increase or decrease [1, 5] | Rate of increase or decrease [2, 6] | Increase or decrease [2] | Time when compound is affected [2] | Rate of increase or decrease [3, 7] | Number of times when compound is affected [3] [times] | Increase or decrease [3] | Increase or decrease ([4]; after 12 hours vs 15 minutes) | also measured
1 | N[C@@H](Cc1c[nH]cn1)C(=O)O [Histidine] | 1.36 | Increase | 1.46 | Increase | After 12 hours | 0.61 | 6 | Decrease | – | –
2 | CC[C@H](C)[C@H](N)C(=O)O [Isoleucine] | 1.44 | Increase | 1.34 | Increase | After 12 hours | – | 6 | Different from individual | Different from individual | Rate of increase or decrease (second value, decrease) ([4]; different from individual to individual, individuals with decrease, relative to 1 at 15 minutes, collection to centrifugation, after 12 hours): 0.65; Rate of increase or decrease (first value, increase) ([4]; different from individual to individual, individuals with increase, relative to 1 at 15 minutes, collection to centrifugation, after 12 hours): 1.31; Rate of increase or decrease ([3]; 6 times of freezing and thawing, relative to 1 at 2 times, different from individual to individual, first value (increase)): 1.33; Rate of increase or decrease ([3]; 6 times of freezing and thawing, relative to 1 at 2 times, different from individual to individual, second value (decrease)): 0.66
3 | NCC(=O)O [Glycine] | – | Increase | 1.50 | Increase | After 12 hours | 0.69 | 6 | Decrease | – | –
4 | O=C(O)CCC(=O)O [Succinic acid] | – | – | – | Increase | After 6 hours | – | 4 | Increase | – | Rate of increase or decrease ([1]; freezing and thawing 4 times): 1.46; Increase or decrease ([1]; freezing and thawing 4 times vs 2 times): Increase; Rate of increase or decrease ([4]; after 4 hours): 0.50; Rate of increase or decrease ([4]; after 6 hours): 0.61; Increase or decrease ([4]; after 4 hours vs 15 minutes): Decrease; Increase or decrease ([4]; after 6 hours vs 15 minutes): Decrease; Rate of increase or decrease ([2]; after 6 hours from blood collection to centrifugation): 1.57; Rate of increase or decrease ([3]; 4 times of freezing and thawing, detection intensity relative to 1 at 2 times): 1.47
5 | CC(C)C[C@H](N)C(=O)O [Leucine] | 1.35 | Increase | 1.35 | Increase | After 12 hours | 0.66 | 6 | Decrease | Decrease | Rate of increase or decrease ([4]; after 12 hours): 0.69
6 | NC(=O)C[C@H](N)C(=O)O [Asparagine] | 1.38 | Increase | 1.40 | Increase | After 12 hours | 0.66 | 6 | Decrease | – | –
